Test results published in patent publication US8536196B2, “Substituted 1,3-dioxanes useful as PPAR modulators” (Evolva SA, priority 2007, dated 2013).

Test system: HaCaT
Experiment: Proliferation of non-cancer cell line (flow cytometry)
Format: cell-based
Settings: 20 μM, 48 hours of treatment
Procedure: A human cervical carcinoma cell line (HeLa) engineered to stably express a recombinant biosensor reporter activity and a non-cancer cell line, HaCaT (Boukamp et al., 1988, J. Cell Biol 106(3):761-771) was used with a Caspa Tag kit (commercially available eg from Chemicon). The detection of proliferation was carried out using a high content screening automated flow cytometer.
DPD (Substance 1) was diluted to 20 μM in cell culture medium without serum adjusted to 1% DMSO. Detection of cellular events was performed in duplicate in 96-well plates after 48 hours of treatment in the FL2 (dilution of a proliferative marker) channels of a HTS flow cytometer (FACS Calibur HTS, Becton Dickenson). At day 1, cells were seeded in 96 well plates. Cells were treated with DPD and the appropriate controls on day 2 and analysis was carried out on day 4.

With O=C(O)CC/C=C\CC1COC(c2ccccc2Cl)OC1c1ccccc1O (racemic) [SN1, (Z)-6-(-2-(2-chlorophenyl)-4-(2-hydroxyphenyl)-1,3-dioxan-5-yl)hex-4-enoic acid] the “effect on non-cancer cell line HaCaT” value was “no effect”.
